The record followed here is PubChem BioAssay (NCI).

Among the test systems are 786-0 renal; A498 renal; CAKI-1 renal; COLO 205 colon; HOP-92 NSCLC; K-562 leukemia; M14 melanoma; MOLT-4 leukemia; NCI-H226 lung; NCI-H460 lung; NCI/ADR-RES ovarian; SF-268 CNS; SK-MEL-28 melanoma; SK-OV-3 ovarian; SNB-75 CNS; U251 CNS; UACC-257 melanoma; HS 578T breast; SK-MEL-5 melanoma.
Common to all, as to experiment: growth of human tumour cells (NCI), 48 h

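Cells were grown in 96-well plates and exposed to each compound for 48 hours at five concentrations; endpoints were interpolated linearly between bracketing concentrations, or set to the highest concentration if not reached. Definition used: TGI = concentration required for complete inhibition of growth.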 Some results are limits rather than exact numbers.

`Cc1ccc(C)c(COCCOCn2c(=O)[nH]c(=O)c3cc(Br)ccc32)c1`: the TGI with 786-0 renal, in the assay on A498 renal, in the assay on CAKI-1 renal, in the assay with COLO 205 colon, with HOP-92 NSCLC and in the assay with K-562 leukemia was greater than 100 µM throughout. Also, the TGI with M14 melanoma, in the assay on MOLT-4 leukemia, in the assay on NCI-H226 lung, in the assay with NCI-H460 lung, in the assay with NCI/ADR-RES ovarian and in the assay with SF-268 CNS was greater than 100 µM each time. Moreover, the TGI with SK-MEL-28 melanoma, in the assay with SK-OV-3 ovarian, with SNB-75 CNS, with U251 CNS and with UACC-257 melanoma was greater than 100 µM throughout.
In the case of `CC(C)N(/C(F)=N\C(=O)Nc1ccccc1C(F)(F)F)C(C)C`, the TGI was greater than 100 µM with 786-0 renal; greater than 100 µM with CAKI-1 renal; greater than 100 µM with COLO 205 colon; 64.2 µM with HOP-92 NSCLC; greater than 100 µM in the assay with HS 578T breast; greater than 100 µM in the assay with K-562 leukemia. Moreover, the TGI with M14 melanoma, in the assay on NCI-H226 lung, in the assay with NCI-H460 lung, in the assay with NCI/ADR-RES ovarian, with SF-268 CNS and in the assay with SK-MEL-28 melanoma was greater than 100 µM throughout. Moreover, the TGI in the assay with SK-MEL-5 melanoma, in the assay on SK-OV-3 ovarian, with SNB-75 CNS, in the assay on U251 CNS and in the assay on UACC-257 melanoma was greater than 100 µM in each case.
Turning to `Brc1ccc(-c2cc(-c3ccc4c(c3)OCO4)c(-c3cccs3)n2Cc2ccccc2)cc1`, the TGI in the assay on 786-0 renal, in the assay with CAKI-1 renal, in the assay with COLO 205 colon, with HS 578T breast, in the assay on K-562 leukemia and in the assay on M14 melanoma was greater than 100 µM in each case. Besides, the TGI with MOLT-4 leukemia, in the assay on NCI-H460 lung, with NCI/ADR-RES ovarian, in the assay on SF-268 CNS, in the assay with SK-MEL-28 melanoma and in the assay on SK-MEL-5 melanoma was greater than 100 µM each time. The TGI in the assay on SK-OV-3 ovarian, with SNB-75 CNS, in the assay on U251 CNS and in the assay with UACC-257 melanoma was greater than 100 µM in each case.
With `CC(=O)OC1[C@H](n2ccnc2)C[C@H]2[C@@H]3CC=C4CC(N5CCCC5)CC[C@]4(C)[C@H]3CC[C@]12C` (stereo partly drawn), the TGI in the assay with 786-0 renal, in the assay on A498 renal, with CAKI-1 renal, in the assay on COLO 205 colon, with HOP-92 NSCLC and with HS 578T breast was greater than 100 µM in each case. In addition, the TGI is greater than 100 µM with K-562 leukemia; 61.6 µM in the assay with M14 melanoma; 48.8 µM in the assay on MOLT-4 leukemia; greater than 100 µM in the assay with NCI-H226 lung; greater than 100 µM with NCI-H460 lung; greater than 100 µM in the assay with NCI/ADR-RES ovarian. The TGI in the assay with SF-268 CNS was greater than 100 µM; with SK-MEL-28 melanoma, 60.4 µM; with SK-MEL-5 melanoma, greater than 100 µM; in the assay on SNB-75 CNS, greater than 100 µM; with U251 CNS it was greater than 100 µM; with UACC-257 melanoma it was 55.3 µM.
As to `CCCCc1c2c(nc3c1CC/C(=C\c1ccc([N+](=O)[O-])cc1)C3=O)CCCC2`, the TGI in the assay on 786-0 renal came out at 2.77 µM; with COLO 205 colon, 6.63 µM; in the assay on K-562 leukemia, 6.88 µM; in the assay with M14 melanoma it was 3.34 µM; in the assay on MOLT-4 leukemia, 7.72 µM; in the assay with NCI-H226 lung, 6.5 µM. The TGI in the assay with NCI-H460 lung was found to be 2.92 µM; in the assay on SF-268 CNS it was 3.93 µM; in the assay with SK-MEL-28 melanoma it was 3.12 µM; in the assay with SK-OV-3 ovarian, 3.91 µM; in the assay with SNB-75 CNS, 20.6 µM; with U251 CNS it was 2.96 µM. For the same compound, the TGI in the assay on UACC-257 melanoma came to 4.6 µM.
As to `COC1=CC(=O)NCCN1`, the TGI in the assay on 786-0 renal, in the assay on A498 renal, in the assay on CAKI-1 renal, with COLO 205 colon, in the assay on HOP-92 NSCLC and with K-562 leukemia was greater than 100 µM each time. Moreover, the TGI was greater than 100 µM in the assay on M14 melanoma; greater than 100 µM in the assay on MOLT-4 leukemia; greater than 100 µM in the assay with NCI-H226 lung; 85.9 µM with NCI-H460 lung; greater than 100 µM with SF-268 CNS; greater than 100 µM in the assay on SK-MEL-28 melanoma. The TGI in the assay with SK-MEL-5 melanoma, with SK-OV-3 ovarian, in the assay on SNB-75 CNS, with U251 CNS and with UACC-257 melanoma was greater than 100 µM each time.
For `COc1ccc2c(c1)CCN1C3=C(CCC3)C(=O)C[C@@H]21`, the TGI in the assay on 786-0 renal, in the assay on A498 renal, in the assay with CAKI-1 renal, with COLO 205 colon, in the assay on HOP-92 NSCLC and with K-562 leukemia was greater than 100 µM throughout. Also, the TGI with M14 melanoma, in the assay with MOLT-4 leukemia, in the assay with NCI-H226 lung, with NCI-H460 lung, with SF-268 CNS and with SK-MEL-28 melanoma was greater than 100 µM in each case. Further, the TGI with SK-MEL-5 melanoma, in the assay on SK-OV-3 ovarian, in the assay with SNB-75 CNS, in the assay on U251 CNS and in the assay with UACC-257 melanoma was greater than 100 µM each time.
`O=[N+]([O-])c1ccc(COc2cccc3cccnc23)cc1`: the TGI with 786-0 renal was 90.6 µM; in the assay with A498 renal it was 79.2 µM; in the assay with CAKI-1 renal, 75 µM; with COLO 205 colon, 33.5 µM; in the assay on HOP-92 NSCLC, greater than 100 µM; in the assay on K-562 leukemia it was 35.9 µM. For the same compound, the TGI in the assay on M14 melanoma came out at 29 µM; in the assay on MOLT-4 leukemia it was 31.4 µM; in the assay with NCI-H226 lung, 95.4 µM; in the assay with NCI-H460 lung it was 17.2 µM; in the assay with SF-268 CNS, 68.7 µM; in the assay with SK-MEL-28 melanoma, 85 µM. The TGI is 58.4 µM in the assay on SK-MEL-5 melanoma; greater than 100 µM with SK-OV-3 ovarian; 78.3 µM with SNB-75 CNS; greater than 100 µM in the assay with U251 CNS; 54.8 µM in the assay with UACC-257 melanoma.
For the compound `CCN(CC)CC(=O)Nc1ccc2c(c1)C(=O)c1ccc(NC(=O)CN(CC)CC)cc1C2=O`, the TGI was 47.2 µM in the assay on 786-0 renal; greater than 100 µM with A498 renal; greater than 100 µM with CAKI-1 renal; 54.1 µM in the assay on COLO 205 colon; greater than 100 µM with HOP-92 NSCLC; 67.8 µM in the assay with K-562 leukemia. Also, the TGI in the assay on M14 melanoma is 36.8 µM; with MOLT-4 leukemia it was 81.5 µM; in the assay on NCI-H460 lung, 31.5 µM; with SF-268 CNS, 82.7 µM; in the assay with SK-MEL-28 melanoma, greater than 100 µM; in the assay on SK-MEL-5 melanoma, 48.9 µM. Moreover, the TGI worked out at 88 µM in the assay with SK-OV-3 ovarian, 89.6 µM in the assay with SNB-75 CNS, 47 µM in the assay on U251 CNS and 97.4 µM in the assay on UACC-257 melanoma.
